Results published in patent US7985556B2, “Method of screening apoptosis accelerating compound or anti-apoptotic compound and method of determining malignancy of neurodegenerative disease” (Hisamitsu Pharmaceutical Co., Inc., priority 2005, dated 2011).

How the values were obtained:
Format in all cases: cell-based, human
SH-SY5Y cells = experiment: Apoptosis of SH-SY5Y cells by cisplatin treatment (TUNEL staining); details: cisplatin final concentration 20 μM
Protocol: SH-SY5Y cells were cultured in the presence of cisplatin (final concentration: 20 μM). The cells were fixed with paraformaldehyde at prescribed time points after the start of culturing and subjected to TUNEL staining, and the TUNEL-positive cells were counted. […] The extent of cell death by cisplatin was detected.

[1] = tested on: NEDL1 gene expression in SH-SY5Y cells; experiment: Expression analysis by RT-PCR in cisplatin treated SH-SY5Y cells; details: cisplatin 20 μM, total RNA
Protocol: The RT-PCR, Western blotting, immunoprecipitation, luciferase reporter assay and cell fractionation were performed according to the procedure described in Ando et al., J. Biol. Chem., 279: 25549-25561, 2004. Colony formation was performed according to the procedure described in Ozaki et al., Cancer Res., 59: 5902-5907, 1999.
Under the same conditions as in Example 1, SH-SY5Y cells were treated with cisplatin and cells were recovered at a prescribed time point, after which the total RNA was extracted and expression of the NEDL1, NEDL2, NEDD4, p21^WAF1 and p53 genes was analyzed by RT-PCR. GAPDH was used as an expression level control.

[2] = tested on: p21WAF1, phosphorylated p53, p53 and NEDL1 protein expression in SH-SY5Y cells; experiment: Expression analysis by Western blotting in cisplatin treated SH-SY5Y cells; details: cisplatin 20 μM, total protein
Protocol: The RT-PCR, Western blotting, immunoprecipitation, luciferase reporter assay and cell fractionation were performed according to the procedure described in Ando et al., J. Biol. Chem., 279: 25549-25561, 2004. Colony formation was performed according to the procedure described in Ozaki et al., Cancer Res., 59: 5902-5907, 1999. Under the same conditions as in Example 1, SH-SY5Y cells were treated with cisplatin and cells were recovered at a prescribed time point, after which the total protein was extracted and the expression of p21^WAF1, phosphorylated p53 (p53 (Ser 15)), p53 and NEDL1 was analyzed by Western blotting. Actin was used as an expression level control.

N.N.[Cl][Pt][Cl] [cisplatin] was tested, and the “cell death (TUNEL-positive cells)” value (SH-SY5Y cells) was “detected”, the “Expression of NEDL1 (RT-PCR)” value [1] was “induced” and the “Expression of NEDL1 (Western blotting)” value [2] was “induced”. For the same compound, the “Expression of p21WAF1 (Western blotting)” value [2] was “induced”, the “Expression of p53 (Western blotting)” value [2] was “induced” and the “Expression of phosphorylated p53 (p53 (Ser 15)) (Western blotting)” value [2] was “induced”.
